Reference: ChEMBL document CHEMBL2177042, “Design, synthesis, and antidiabetic activity of 4-phenoxynicotinamide and 4-phenoxypyrimidine-5-carboxamide derivatives as potent and orally efficacious TGR5 agonists” (J Med Chem, 2012)

Columns and labels:
Format in all cases: ADME, organism-based
[1] = Drug level in ICR mouse bile at 50 mg/kg, po after 4.5 hrs; set-up: dose 50 mg/kg, route oral; conditions: read-out: Drug uptake
[2] = Drug level in ICR mouse bile at 50 mg/kg, po after 0.5 hrs; set-up: dose 50 mg/kg, route oral; conditions: read-out: Drug uptake
[3] = Tmax in Sprague-Dawley rat at 5 mg/kg, po; set-up: dose 5 mg/kg, route oral; conditions: in vivo
[4] = MRT in Sprague-Dawley rat at 5 mg/kg, po; set-up: dose 5 mg/kg, route oral; conditions: in vivo
[5] = AUC (0 to 4.5 hrs) in ICR mouse plasma at 50 mg/kg, po; set-up: time < 4.5 hr, dose 50 mg/kg, route oral
[6] = AUC (0 to 4.5 hrs) in ICR mouse bile at 50 mg/kg, po; set-up: time < 4.5 hr, dose 50 mg/kg, route oral
[7] = Drug level in ICR mouse gall bladder at 50 mg/kg, po after 1 hr; set-up: dose 50 mg/kg, route oral; conditions: read-out: Drug uptake
[8] = Drug level in ICR mouse bile at 50 mg/kg, po after 1 hr; set-up: dose 50 mg/kg, route oral; conditions: read-out: Drug uptake
[9] = Plasma concentration in ICR mouse at 50 mg/kg, po after 0.5 hrs; set-up: dose 50 mg/kg, route oral
[10] = Plasma concentration in ICR mouse at 50 mg/kg, po after 2.5 hrs; set-up: dose 50 mg/kg, route oral
[11] = AUC (0 to 4.5 hrs) in ICR mouse gall bladder at 50 mg/kg, po; set-up: time < 4.5 hr, dose 50 mg/kg, route oral
[12] = Drug level in ICR mouse gall bladder at 50 mg/kg, po after 0.5 hrs; set-up: dose 50 mg/kg, route oral; conditions: read-out: Drug uptake
[13] = Cmax in ICR mouse gall bladder at 50 mg/kg, po; set-up: dose 50 mg/kg, route oral
[14] = Drug level in ICR mouse bile at 50 mg/kg, po after 2.5 hrs; set-up: dose 50 mg/kg, route oral; conditions: read-out: Drug uptake
[15] = AUC (0 to t) in Sprague-Dawley rat at 5 mg/kg, po; set-up: dose 5 mg/kg, route oral; conditions: plasma
[16] = Cmax in Sprague-Dawley rat at 5 mg/kg, po; set-up: dose 5 mg/kg, route oral; conditions: in vivo
[17] = AUC (0 to infinity) in Sprague-Dawley rat at 5 mg/kg, po; set-up: time infinity, dose 5 mg/kg, route oral; conditions: plasma
[18] = Half life in Sprague-Dawley rat at 5 mg/kg, po; set-up: dose 5 mg/kg, route oral; conditions: in vivo
[19] = Plasma concentration in ICR mouse at 50 mg/kg, po after 1 hr; set-up: dose 50 mg/kg, route oral
[20] = Plasma concentration in ICR mouse at 50 mg/kg, po after 4.5 hrs; set-up: dose 50 mg/kg, route oral
[21] = Drug level in ICR mouse gall bladder at 50 mg/kg, po after 4.5 hrs; set-up: dose 50 mg/kg, route oral; conditions: read-out: Drug uptake
[22] = Drug level in ICR mouse gall bladder at 50 mg/kg, po after 2.5 hrs; set-up: dose 50 mg/kg, route oral; conditions: read-out: Drug uptake
[23] = Cmax in ICR mouse bile at 50 mg/kg, po; set-up: dose 50 mg/kg, route oral
[24] = Cmax in ICR mouse plasma at 50 mg/kg, po; set-up: dose 50 mg/kg, route oral

Structure (SMILES): Cc1ccc(C)c(Oc2ccncc2C(=O)N2CCN(C3CC3)c3ccccc32)c1
- concentration at 4.5 h [1]: 2 µM
- concentration at 0.5 h [2]: 1.7 µM
- Tmax [3]: 0.9 h
- MRT [4]: 2.4 h
- AUC(0-t) at 4.5 h [5]: 3.13 µg·h/mL
- AUC(0-t) at 4.5 h [6]: 3.38 µg·h/mL
- concentration at 1 h [7]: 393 ng/g
- concentration at 1 h [8]: 2.1 µM
- concentration at 0.5 h [9]: 3.1 µM
- concentration at 2.5 h [10]: 2 µM
- AUC(0-t) at 4.5 h [11]: 1.29 µg·h/mL
- concentration at 0.5 h [12]: 294 ng/g
- Cmax [13]: 523 ng/g
- concentration at 2.5 h [14]: 2 µM
- AUC(0-t) [15]: 0.147 µg·h/mL
- Cmax [16]: 0.056 µg/mL
- AUC(0-inf) [17]: 0.155 µg·h/mL
- half-life [18]: 1.5 h
- concentration at 1 h [19]: 2.3 µM
- concentration at 4.5 h [20]: 0.51 µM
- concentration at 4.5 h [21]: 217 ng/g
- concentration at 2.5 h [22]: 306 ng/g
- Cmax [23]: 3.7 µM
- Cmax [24]: 3.6 µM
